Test results taken from US9695155B2, “Herbicidal substituted pyrimidinyloxy benzene compounds” (E. I. DU PONT DE NEMOURS AND COMPANY, priority 2013, dated 2017).

Experiments:
barnyardgrass [1] = experiment: Test A preemergence; assay type: in vivo, Echinochloa crus-galli; conditions: for Plant response rating, Barnyardgrass: 125 g ai/ha, 0 to 100 scale where 0 is no effect and 100 is complete control; for Barnyardgrass plant response rating (0 to 100 scale): 31 g ai/ha
Summary of the method: (§1)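 Pre- and postemergence greenhouse screen. Soil: loam + sand. Spray carrier: solvent mixture, non-phytotoxic, with surfactant. Post timing at 1–2 leaves, height 2–10 cm. Readout: visual injury on a 0–100 scale roughly 10 days after application, untreated plants as reference.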

pigweed [2] = experiment: Test A postemergence; assay type: in vivo, Amaranthus retroflexus
Summary of the method: as §1

Italian ryegrass [3] = experiment: Test A preemergence; assay type: in vivo, Lolium multiflorum; conditions: for Plant response rating, Ryegrass, Italian: 125 g ai/ha, 0 to 100 scale where 0 is no effect and 100 is complete control; for Ryegrass, Italian plant response rating (0 to 100 scale): 31 g ai/ha
Summary of the method: as §1

Heteranthera limosa = experiment: Test B flooded paddy test; assay type: in vivo; conditions: Flood, 250 g ai/ha; 0 to 100 scale where 0 is no effect and 100 is complete control
Summary of the method: (§2)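 Seedlings are raised to two leaves, flooded to a depth of 3 cm and dosed by adding the compound to the floodwater. Water level is kept constant, and plants are scored visually versus controls 13–15 days later (0 = no effect, 100 = complete control).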

ragweed [4] = experiment: Test A postemergence; assay type: in vivo, Ambrosia elatior
From the text: (§3) Seeds of plant species selected from barnyardgrass (Echinochloa crus-galli), kochia (Kochia scoparia), ragweed (common ragweed, Ambrosia elatior), Italian ryegrass (Lolium multiflorum), large (Lg) crabgrass (Digitaria sanguinalis), giant foxtail (Setaria faberii), morningglory (Ipomoea spp.), pigweed (Amaranthus retroflexus), velvetleaf (Abutilon theophrasti), wheat (Triticum aestivum), and corn (Zea mays) were planted into a blend of loam soil and sand and treated preemergence with a directed soil spray using test chemicals formulated in a non-phytotoxic solvent mixture which included a surfactant.
(§4) At the same time, plants selected from these crop and weed species and also blackgrass (Alopecurus myosuroides), and galium (catchweed bedstraw, Galium aparine) were planted in pots containing the same blend of loam soil and sand and treated with postemergence applications of test chemicals formulated in the same manner. Plants ranged in height from 2 to 10 cm and were in the one- to two-leaf stage for the postemergence treatment. Treated plants and untreated controls were maintained in a greenhouse for approximately 10 days, after which time all treated plants were compared to untreated controls and visually evaluated for injury. Plant response ratings, summarized in Table A, are based on a 0 to 100 scale where 0 is no effect and 100 is complete control. A dash (-) response means no test result.

kochia [5] = experiment: Test A postemergence; assay type: in vivo, Kochia scoparia
From the text: as §3, §4

rice = experiment: Test B flooded paddy test; assay type: in vivo, Oryza sativa; conditions: Flood, 250 g ai/ha; 0 to 100 scale where 0 is no effect and 100 is complete control
Summary of the method: as §2

galium = experiment: Test A postemergence; assay type: in vivo, Galium aparine
Summary of the method: as §1

giant foxtail [6] = experiment: Test A preemergence; assay type: in vivo, Setaria faberii; conditions: for Plant response rating, Foxtail, Giant: 125 g ai/ha, 0 to 100 scale where 0 is no effect and 100 is complete control; for Foxtail, Giant plant response rating (0 to 100 scale): 31 g ai/ha
Summary of the method: as §1

corn = experiment: Test A postemergence; assay type: in vivo, Zea mays
Summary of the method: as §1

wheat = experiment: Test A postemergence; assay type: in vivo, Triticum aestivum
Summary of the method: as §1

ragweed [7] = experiment: Test A preemergence; assay type: in vivo, Ambrosia elatior; conditions: for Plant response rating, Ragweed: 125 g ai/ha, 0 to 100 scale where 0 is no effect and 100 is complete control; for Ragweed plant response rating (0 to 100 scale): 31 g ai/ha
Summary of the method: as §1

blackgrass = experiment: Test A postemergence; assay type: in vivo, Alopecurus myosuroides
From the text: as §3, §4

giant foxtail [8] = experiment: Test A postemergence; assay type: in vivo, Setaria faberii
Summary of the method: as §1

pigweed [9] = experiment: Test A preemergence; assay type: in vivo, Amaranthus retroflexus; conditions: for Plant response rating, Pigweed: 125 g ai/ha, 0 to 100 scale where 0 is no effect and 100 is complete control; for Pigweed plant response rating (0 to 100 scale): 31 g ai/ha
Summary of the method: as §1

Italian ryegrass [10] = experiment: Test A postemergence; assay type: in vivo, Lolium multiflorum
From the text: as §3, §4

kochia [11] = experiment: Test A preemergence; assay type: in vivo, Kochia scoparia; conditions: for Plant response rating, Kochia: 125 g ai/ha, 0 to 100 scale where 0 is no effect and 100 is complete control; for Kochia plant response rating (0 to 100 scale): 31 g ai/ha
From the text: as §3, §4

barnyardgrass [12] = experiment: Test B flooded paddy test; assay type: in vivo, Echinochloa crus-galli; conditions: Flood, 250 g ai/ha; 0 to 100 scale where 0 is no effect and 100 is complete control
Summary of the method: as §2

barnyardgrass [13] = experiment: Test A postemergence; assay type: in vivo, Echinochloa crus-galli
Summary of the method: as §1

sedge, umbrella = experiment: Test B flooded paddy test; assay type: in vivo, Cyperus difformis; conditions: Flood, 250 g ai/ha; 0 to 100 scale where 0 is no effect and 100 is complete control
Summary of the method: as §2

[14] = 500 g ai/ha, 0 to 100 scale, 0 no effect, 100 complete control, approx. 10 days
[15] = 125 g ai/ha, 0 to 100 scale where 0 is no effect and 100 is complete control
[16] = 500 g ai/ha, 0 to 100 scale where 0 is no effect and 100 is complete control
[17] = 31 g ai/ha, 0 to 100 scale, 0 no effect, 100 complete control

Row | Compound | Plant response rating, Barnyardgrass (barnyardgrass [1]) | Plant response rating, Ryegrass, Italian (Italian ryegrass [3]) | Plant response rating, Ducksalad (Heteranthera limosa) | Plant response rating, Kochia (kochia [5]; [15]) | Plant response rating, Rice (rice) | Plant response rating, Galium (galium; [15]) | Plant response rating, Foxtail, Giant (giant foxtail [6]) | Plant response rating, Corn (corn; [15]) | Plant response rating, Ragweed (ragweed [7]) | Plant response rating, Blackgrass (blackgrass; [15]) | Plant response rating, Foxtail, Giant (giant foxtail [8]; [15]) | Plant response rating, Pigweed (pigweed [9]) | Plant response rating, Kochia (kochia [11]) | Plant response rating, Barnyardgrass (barnyardgrass [12]) | Plant response rating, Barnyardgrass (barnyardgrass [13]; [15]) | Plant response rating, Sedge, Umbrella (sedge, umbrella) | Barnyardgrass plant response rating (0 to 100 scale) (barnyardgrass [1]) | Plant response rating, Pigweed (pigweed [2]; [17]) | Ryegrass, Italian plant response rating (0 to 100 scale) (Italian ryegrass [3]) | Plant response rating, Ragweed (ragweed [4]; [17]) | other results
1 | N#Cc1cccc(Oc2ncc(I)cn2)c1-n1cc(I)cn1 [Compound 87] | 0 | 0 | 0 | 50 | 0 | 60 | 60 | 20 | 10 | 40 | 20 | 90 | 30 | 0 | 20 | 0 | – | – | – | – | Barnyardgrass plant response rating (barnyardgrass [1]; [14]): 10; Plant response rating, Pigweed (pigweed [2]; [15]): 60; Plant response rating, Pigweed (pigweed [2]; [16]): 100; Ryegrass, Italian plant response rating (Italian ryegrass [3]; [14]): 0; Plant response rating, Ragweed (ragweed [4]; [15]): 50; Plant response rating, Ragweed (ragweed [4]; [16]): 70; Plant response rating, Kochia (kochia [5]; [16]): 90; Plant response rating, Galium (galium; [16]): 90; Foxtail, Giant plant response rating (giant foxtail [6]; [14]): 70; Plant response rating, Corn (corn; [16]): 20; Plant response rating, Wheat (wheat; [15]): 0; Plant response rating, Wheat (wheat; [16]): 0; Ragweed plant response rating (ragweed [7]; [14]): 20; Plant response rating, Blackgrass (blackgrass; [16]): 50; Plant response rating, Foxtail, Giant (giant foxtail [8]; [16]): 60; Pigweed plant response rating (pigweed [9]; [14]): 100; Plant response rating, Ryegrass, Italian (Italian ryegrass [10]; [15]): 30; Plant response rating, Ryegrass, Italian (Italian ryegrass [10]; [16]): 40; Kochia plant response rating (kochia [11]; [14]): 60; Plant response rating, Barnyardgrass (barnyardgrass [13]; [16]): 20
2 | Clc1cnc(Oc2ccccc2-n2ccnc2)nc1 [Compound 100] | 0 | 0 | 0 | 0 | 0 | 10 | 0 | 0 | 0 | 0 | 0 | 0 | 0 | 15 | 0 | 0 | 0 | 0 | 0 | 0 | Plant response rating, Kochia (kochia [5]; [17]): 0; Plant response rating, Galium (galium; [17]): 0; Foxtail, Giant plant response rating (0 to 100 scale) (giant foxtail [6]): 0; Plant response rating, Corn (corn; [17]): 0; Plant response rating, Wheat (wheat; [17]): 0; Ragweed plant response rating (0 to 100 scale) (ragweed [7]): 0; Plant response rating, Blackgrass (blackgrass; [17]): 0; Plant response rating, Foxtail, Giant (giant foxtail [8]; [17]): 0; Pigweed plant response rating (0 to 100 scale) (pigweed [9]): 0; Plant response rating, Ryegrass, Italian (Italian ryegrass [10]; [17]): 0; Kochia plant response rating (0 to 100 scale) (kochia [11]): 0; Plant response rating, Barnyardgrass (barnyardgrass [13]; [17]): 0
3 | Fc1cnc(Oc2cccc(Cl)c2-n2cc(OC(F)F)cn2)nc1 [Compound 101] | 70 | 0 | 0 | 100 | 0 | 60 | 90 | 20 | 30 | 20 | 60 | 100 | 70 | 0 | 20 | 0 | 60 | 90 | 0 | 50 | Plant response rating, Kochia (kochia [5]; [17]): 70; Plant response rating, Galium (galium; [17]): 40; Foxtail, Giant plant response rating (0 to 100 scale) (giant foxtail [6]): 70; Plant response rating, Corn (corn; [17]): 10; Plant response rating, Wheat (wheat; [17]): 20; Ragweed plant response rating (0 to 100 scale) (ragweed [7]): 0; Plant response rating, Blackgrass (blackgrass; [17]): 20; Plant response rating, Foxtail, Giant (giant foxtail [8]; [17]): 20; Pigweed plant response rating (0 to 100 scale) (pigweed [9]): 90; Plant response rating, Ryegrass, Italian (Italian ryegrass [10]; [17]): 0; Kochia plant response rating (0 to 100 scale) (kochia [11]): 70; Plant response rating, Barnyardgrass (barnyardgrass [13]; [17]): 20
